# Reference: patent US6767890B1, “Peptides having anti-cancer and anti-inflammatory activity” (priority 1998, dated 2004)
# “And” between values parts separate entries of the source, which are not always exact repeats. Equal entries are not always repeated.
# Legend:
# Collagenase IV = target: T1, Collagenase IV (Homo sapiens, UniProt P14780); assay: Collagenase IV enzyme assay; type: biochemical; conditions: 100.0 μM; average of duplicate; negative = stimulation
# T1 construct: human U937; endogenous in cells; host or cells: U937 cells
# T1 sequence (P14780 94-707): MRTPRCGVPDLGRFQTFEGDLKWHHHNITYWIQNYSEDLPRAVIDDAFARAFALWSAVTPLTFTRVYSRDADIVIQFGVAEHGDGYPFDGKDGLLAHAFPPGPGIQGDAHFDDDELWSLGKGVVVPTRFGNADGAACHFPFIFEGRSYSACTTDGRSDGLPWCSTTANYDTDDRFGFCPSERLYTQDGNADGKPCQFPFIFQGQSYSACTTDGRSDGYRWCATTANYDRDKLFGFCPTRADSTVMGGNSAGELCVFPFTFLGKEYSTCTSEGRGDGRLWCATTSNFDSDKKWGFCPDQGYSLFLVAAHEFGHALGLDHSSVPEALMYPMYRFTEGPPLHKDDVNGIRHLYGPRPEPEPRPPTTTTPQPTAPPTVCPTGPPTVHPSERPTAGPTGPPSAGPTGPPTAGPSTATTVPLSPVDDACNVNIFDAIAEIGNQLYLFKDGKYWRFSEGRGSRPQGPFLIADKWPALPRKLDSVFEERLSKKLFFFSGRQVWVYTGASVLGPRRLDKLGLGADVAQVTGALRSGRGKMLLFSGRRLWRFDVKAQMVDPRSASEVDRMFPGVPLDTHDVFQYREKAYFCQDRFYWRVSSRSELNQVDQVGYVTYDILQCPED
# Experimental: (§1) The peptide was further screened in vitro in a variety of enzyme and biochemical assays. Methods employed were adapted from the scientific literature to maximize reliability and reproducibility. The primary literature reference for each assay is listed in Table 11 opposite the results for each assay.
# (§2) Results presented in Table 10, “Results,” are the average of duplicate determinations, unless otherwise noted.
# (§3) Reference compounds were tested concurrently at 5 concentrations as an integral part of each assay to ensure the validity of the results obtained.
# (§4) Enzyme assays were performed under conditions described in Table 8, “Experimental Conditions.”. The commercial suppliers and catalog numbers of substrates employed in this study are given in Table 7, “Material Sources.” The name, commercial source, and catalog numbers of concurrent reference compounds (controls) employed in this study are given in Table 9, “Reference Compound Data.” The reaction catalyzed by each enzyme is listed in Table 8, “Experimental Conditions.”
# (§5) Biochemical assay results are presented in Table 10, as the percent inhibition of specific binding or activity, and unless noted are the average of duplicate tubes tested at each concentration.
# Protease - Elastase = target: T2, Protease - Elastase (Homo sapiens, UniProt P08246); assay: Protease - Elastase enzyme assay; type: biochemical; conditions: 30.0 μM; average of duplicate; negative = stimulation
# T2 construct: neutrophils; endogenous in cells; host or cells: human neutrophils
# T2 sequence (P08246 30-267): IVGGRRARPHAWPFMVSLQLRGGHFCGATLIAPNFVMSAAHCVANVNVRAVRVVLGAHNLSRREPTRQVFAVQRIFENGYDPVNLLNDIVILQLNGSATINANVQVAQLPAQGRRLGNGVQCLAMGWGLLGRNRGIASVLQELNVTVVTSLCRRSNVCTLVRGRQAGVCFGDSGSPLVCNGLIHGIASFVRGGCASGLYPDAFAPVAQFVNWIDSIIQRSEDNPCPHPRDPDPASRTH
# Experimental: as §1, §2, §3, §4, §5
# [1] = target: Ca++ Ch.-L, Benzothiazepine (Rattus norvegicus, UniProt P22002); assay: Ca++ Ch.-L, Benzothiazepine radioligand binding; conditions: 10.0 μM; specific binding of [3H]Diltiazem; negative = stimulation
# Sequence of Ca++ Ch.-L, Benzothiazepine (P22002 whole entry): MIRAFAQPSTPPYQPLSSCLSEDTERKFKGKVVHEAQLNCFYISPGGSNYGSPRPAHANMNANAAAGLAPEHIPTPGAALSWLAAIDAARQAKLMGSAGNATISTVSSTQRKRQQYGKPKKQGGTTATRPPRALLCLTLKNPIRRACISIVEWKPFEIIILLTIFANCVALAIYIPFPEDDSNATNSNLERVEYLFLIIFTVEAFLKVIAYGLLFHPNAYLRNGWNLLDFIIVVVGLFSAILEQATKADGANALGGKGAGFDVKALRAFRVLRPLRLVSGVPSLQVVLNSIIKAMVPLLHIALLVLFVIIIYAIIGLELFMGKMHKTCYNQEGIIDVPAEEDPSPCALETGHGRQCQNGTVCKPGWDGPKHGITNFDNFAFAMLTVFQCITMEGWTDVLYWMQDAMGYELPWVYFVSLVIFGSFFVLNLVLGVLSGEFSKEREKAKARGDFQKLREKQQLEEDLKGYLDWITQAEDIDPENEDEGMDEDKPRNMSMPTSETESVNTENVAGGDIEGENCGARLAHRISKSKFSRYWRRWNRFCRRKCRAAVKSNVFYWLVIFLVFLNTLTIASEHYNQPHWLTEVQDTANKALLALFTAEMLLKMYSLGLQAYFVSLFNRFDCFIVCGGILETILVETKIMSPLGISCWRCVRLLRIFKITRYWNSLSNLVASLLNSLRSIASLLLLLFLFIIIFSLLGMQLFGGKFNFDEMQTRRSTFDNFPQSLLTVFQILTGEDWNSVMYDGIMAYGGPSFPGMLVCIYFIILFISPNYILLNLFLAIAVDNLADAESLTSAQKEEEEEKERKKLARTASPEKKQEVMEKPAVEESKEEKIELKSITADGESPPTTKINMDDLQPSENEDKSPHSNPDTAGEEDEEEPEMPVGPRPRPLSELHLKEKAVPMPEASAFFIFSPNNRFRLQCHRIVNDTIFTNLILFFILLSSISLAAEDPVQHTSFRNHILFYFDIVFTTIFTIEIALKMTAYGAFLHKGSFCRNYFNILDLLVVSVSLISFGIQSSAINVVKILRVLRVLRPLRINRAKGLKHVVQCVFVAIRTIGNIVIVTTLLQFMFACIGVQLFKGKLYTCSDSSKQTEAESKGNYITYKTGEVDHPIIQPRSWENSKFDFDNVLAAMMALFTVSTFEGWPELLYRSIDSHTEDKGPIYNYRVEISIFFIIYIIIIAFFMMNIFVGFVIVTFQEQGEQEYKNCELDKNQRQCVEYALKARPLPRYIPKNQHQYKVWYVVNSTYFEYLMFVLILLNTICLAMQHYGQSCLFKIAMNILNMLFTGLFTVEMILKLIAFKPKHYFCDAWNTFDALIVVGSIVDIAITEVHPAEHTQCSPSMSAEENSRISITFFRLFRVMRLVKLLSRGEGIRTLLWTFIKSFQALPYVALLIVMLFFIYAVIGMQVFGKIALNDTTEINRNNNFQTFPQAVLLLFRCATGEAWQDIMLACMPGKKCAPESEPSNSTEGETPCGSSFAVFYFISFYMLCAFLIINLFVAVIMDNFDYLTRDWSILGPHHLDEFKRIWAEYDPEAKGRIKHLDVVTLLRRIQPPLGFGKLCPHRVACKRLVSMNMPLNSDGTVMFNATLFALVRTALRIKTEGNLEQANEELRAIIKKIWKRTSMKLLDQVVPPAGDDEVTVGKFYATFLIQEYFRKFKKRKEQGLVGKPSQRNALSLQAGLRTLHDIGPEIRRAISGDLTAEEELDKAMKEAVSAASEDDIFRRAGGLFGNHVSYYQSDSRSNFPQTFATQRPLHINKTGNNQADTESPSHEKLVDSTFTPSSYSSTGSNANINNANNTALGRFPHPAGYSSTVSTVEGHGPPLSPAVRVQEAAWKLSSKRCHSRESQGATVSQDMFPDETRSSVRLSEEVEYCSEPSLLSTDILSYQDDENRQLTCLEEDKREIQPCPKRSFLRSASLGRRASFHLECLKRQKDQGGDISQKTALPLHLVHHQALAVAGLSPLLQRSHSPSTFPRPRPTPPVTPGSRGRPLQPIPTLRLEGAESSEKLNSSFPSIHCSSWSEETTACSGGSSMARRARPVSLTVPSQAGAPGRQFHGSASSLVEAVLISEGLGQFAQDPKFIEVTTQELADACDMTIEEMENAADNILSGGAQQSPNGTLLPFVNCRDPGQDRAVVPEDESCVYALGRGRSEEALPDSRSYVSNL
# Experimental: (§6) The peptide was further screened in vitro in a variety of enzyme and biochemical assays. Methods employed were adapted from the scientific literature to maximize reliability and reproducibility.
# as §2
# (§7) Radioligand binding assays were performed under conditions described in Table 8, “Experimental Conditions.” Radioligands employed in this study are given in Table 8, and commercial sources and catalog numbers of the radioligands are provided in Table 7, “Material Sources.” Unlabeled, blocking ligands employed this study are listed in Table 8, “Experimenal Conditions,” along with the commercial sources and catalog number of the unlabeled ligand. The concurrent reference compound (control) employed in each assay is listed in Table 9, “Reference Compound Data,” along with the commercial supplier and catalog number of the compound. Where receptors have been obtained through recombinant expression techniques, the species from which the cDNA was obtained, and the type of expression system employed (mammalian, insect, bacterial) is also given Table 7.
# (§8) Maximum total binding and nonspecific binding were determined each time each assay was run. Nonspecific binding was defined as the proportion of total binding not displaced by unlabeled ligand specific for the receptor. […]
# [2] = system: croton oil-induced ear inflammation; assay: Mouse-ear edema model (croton oil); type: in vivo; conditions: 20 λ of 5% peptide in carbopol topically 30 min after 10% croton oil, ear biopsy weight at 24 hrs
# From the text: Mouse-ear edema model. Croton-oil, which contains a variety of phorbol esters, and arachidonic acid (AA) are standard inducers of inflammation in mouse ears when applied topically. Phorbol esters, especially phorbol myristyl acetate (PMA), activate one or more isozymes of the ubiquitous membrane receptor, protein kinase C (PKC), which in turn initiates several metabolic cascades leading to inflammation. As is a substrate for one of these cascades, leading to prostaglandin and leukotriene production, both of which are inflammatory. Inhibition of such inflammation by a putative bioactive agent is considered a generalized indicator of potential pharmacologic activity.
# Male Swiss Webster mice (15-20 g) were purchased from B&K Universal, Kent, Wash. and maintained in the laboratory for one day prior to entering the experiment. At t=0, the ventral side of both ears of each mouse was challenged topically with 10 λ of 10% croton oil in acetone. […] The animals were sacrificed by cervical dislocation at t=24 hrs, the ears removed, and a biopsy take from each ear with an 8 mm punch. The biopsy was immediately weighed on a 4-place balance.
# histamine H3 receptor = target: T3, histamine H3 receptor (Cavia porcellus, UniProt Q9JI35); assay: Histamine H3 Agonism/Antagonism, guinea pig ileum; type: cell-based; conditions: Peptide 30 μM, Thioperamide 0.3 μM
# T3 construct: ileum obtained from Duncan Hartley derived male or female guinea pigs; from tissue; host or cells: guinea pig ileum segment, field-stimulated
# T3 sequence (Q9JI35 whole entry): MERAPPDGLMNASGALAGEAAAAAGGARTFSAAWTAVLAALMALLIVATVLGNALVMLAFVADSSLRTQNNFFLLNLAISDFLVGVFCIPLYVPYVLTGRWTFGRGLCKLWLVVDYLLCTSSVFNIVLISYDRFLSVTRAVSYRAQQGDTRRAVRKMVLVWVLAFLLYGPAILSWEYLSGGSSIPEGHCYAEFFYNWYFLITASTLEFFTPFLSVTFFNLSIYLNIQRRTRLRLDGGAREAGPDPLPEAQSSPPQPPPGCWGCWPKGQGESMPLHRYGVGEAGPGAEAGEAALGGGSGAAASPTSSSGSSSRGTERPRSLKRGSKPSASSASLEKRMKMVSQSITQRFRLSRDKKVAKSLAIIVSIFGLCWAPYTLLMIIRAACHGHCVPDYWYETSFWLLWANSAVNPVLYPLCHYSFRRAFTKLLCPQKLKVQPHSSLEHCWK
# Experimental: A segment of ileum obtained from Duncan Hartley derived male or female guinea pigs weighing 325±25 gms and sacrificed by CO2 overexposure were used. The tissue was placed under 0.5 g tension in a 10 ml bath containing Kreb's solution pH 7.4 and pyrilamine (0.3 μM) at 32° C. and subjected to field stimulation (70% of maximum voltage, 0.1 Hz, 0.5 millisecond). Test substance (30 μM)-induced reduction of isometrically recorded contractions 50 percent or more (≧50%) within 5 minutes, relative to control 0.3 μM R-α-methylhistamine response, indicated possible histamine H3 receptor agonist activity. At a test substance concentration where no significant agonist activity was seen, ability to inhibit R-α-methylhistamine-induced response by 50 percent or more (≧50%) indicated histamine H3 receptor antagonist activity. Each concentration was tested on two separate preparations.
# Leukotriene B4 = target: T4, Leukotriene B4 (Homo sapiens, UniProt Q15722); assay: Leukotriene B4 radioligand binding; conditions: 10.0 μM; specific binding of [3H]LTB4; negative = stimulation
# T4 construct: human U937; endogenous in cells; host or cells: U937 cells
# T4 sequence (Q15722 whole entry): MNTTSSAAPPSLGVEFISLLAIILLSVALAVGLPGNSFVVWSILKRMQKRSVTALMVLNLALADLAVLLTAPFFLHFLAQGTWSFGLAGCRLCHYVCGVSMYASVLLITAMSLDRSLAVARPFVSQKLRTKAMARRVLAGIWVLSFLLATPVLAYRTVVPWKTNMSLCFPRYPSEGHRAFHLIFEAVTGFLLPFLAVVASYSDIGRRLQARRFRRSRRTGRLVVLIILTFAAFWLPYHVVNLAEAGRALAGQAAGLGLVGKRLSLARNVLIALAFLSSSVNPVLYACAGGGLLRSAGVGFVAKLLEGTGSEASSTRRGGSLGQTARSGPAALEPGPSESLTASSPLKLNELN
# Experimental: as §6, §2, §7, §8
# [3] = system: oxazolone-induced ear swelling; assay: Immune Suppression, Cellular (oxazolone ear thickness); type: in vivo, mouse; conditions: IP, Peptide 100 mg/kg × 5, Cyclophosphamide 30 mg/kg × 5
# Experimental: For in vivo assay, distilled water and saline was used as vehicle in oral and intraperitoneal administration, respectively. Dosing volume was 20 ml/kg for mice or 10 ml/kg for rats.
# Groups of 5 ICR derived male mice weighing 22±1 gms were used. The preshaved abdominal surface was sensitized by application of oxazolone 0.1 ml of 5% solution. […] After additional four days, the animals were challenged by secondary application of oxazolone (0.025 ml of 5% solution) to the right ear. After a further 24 hours, each mouse was sacrificed and ear thickness measured with a Dyer Model micrometer gauge. A 30 percent or more (≧30%) decrease relative to the vehicle control group was considered significant and indicated possible immunosuppressant activity.
substance,measurement,setting,value
LEU-PRO-PRO-SER-ARG [Peptide],% Inhibition,Collagenase IV,2%
same,% Inhibition,Protease - Elastase,−11%
same,% Inhibition,[1],18%
same,reduction in swelling compared to vehicle-only treated ears,[2],61%
same,"Agonism, Ave.","histamine H3 receptor; average of two preparations, R(α)-Methylhistamine 0.3 μM",4%
same,"Antagonism, Ave.",histamine H3 receptor; average of two preparations,4%
same,Antagonism,"histamine H3 receptor; individual preparation, reduction of 0.3 μM R(α)-methylhistamine-induced relaxation",7% and 0%
same,Agonism,"histamine H3 receptor; individual preparation, relaxation within 5 minutes relative to 0.3 μM R-α-methylhistamine, R(α)-Methylhistamine 0.3 μM (0.1 printed in r13)",0% and 4%
same,% Inhibition,Leukotriene B4,8%
same,% INH.,[3]; decrease of net ear thickness relative to vehicle control,17%
same,"Thickness Net, X (group mean)",[3]; group mean,23.0 × 0.1 mm
same,Thickness Net,"[3]; individual mouse, R. Ear minus L. Ear",20 × 0.1 mm and 21 × 0.1 mm and 24 × 0.1 mm and 27 × 0.1 mm
same,Thickness R. Ear,"[3]; individual mouse, challenged right ear, 24 hours after oxazolone challenge",43 × 0.1 mm (2×) and 44 × 0.1 mm and 50 × 0.1 mm
same,Thickness L. Ear,"[3]; individual mouse, left ear",23 × 0.1 mm (2×) and 22 × 0.1 mm and 20 × 0.1 mm
